Source: patent US11918620B2, “Traditional Chinese medicine composition, and preparation method therefor and application thereof” (Suzhou Regen-PharmaTech Co., Ltd., priority 2020, dated 2024)

System: rats with hybrid hyperlipidemia
Experiment: Blood lipids in hybrid hyperlipidemia rat model
Format: in vivo, SD rat
Settings: 3.3 mg/kg, compared with the modeling control group, at each time point
Description: Grouping: After quarantine, the animals were randomized into a negative control group of 10 animals and modeling groups of the rest. After the modeling groups were given modeling feed for 2 weeks, the animals were anesthetized by isoflurane inhalation without fasting. The blood was collected from orbital venous sinus and was centrifuged at 3000 rpm for 10 min to separate the serum. The total cholesterol (TC), triglyceride (TG), low-density lipoprotein cholesterol (LDL-C) and high-density lipoprotein cholesterol (HDL-C) levels were determined. Animals with lower TG levels were eliminated. […]
2.8.1 High-fat and high-cholesterol modeling feed: A maintenance feed containing 20.0% of sucrose, 5% of lard, 1.0% of cholesterol, 0.1% of sodium cholate, appropriate amounts of casein, calcium bicarbonate, powdered stone and the like. Other than crude fat, in the modeling feed, moisture, crude protein, crude fat, crude fiber, crude ash, calcium, phosphorus and calcium:phosphorus all satisfied the national standard for maintenance feed. The feed was provided by Guangdong Medical Laboratory Animal Center. […]
2.8.6.3 Blood lipids: After 2, 4, 7 and 9 weeks of treatment (d14, d28, d52 and d65), the animals were anesthetized by isoflurane inhalation without fasting. […] The TC, TG, LDL-C and HDL-C levels were determined. […]

With `CC(C)c1c(C(=O)Nc2ccccc2)c(-c2ccccc2)c(-c2ccc(F)cc2)n1CC[C@@H](O)C[C@@H](O)CC(=O)O` [atorvastatin calcium tablet, atorvastatin calcium] the “effect on reducing blood lipids (summary)” value was “no significant effect on reducing the blood lipids”.
